Measurements reported in ChEMBL document CHEMBL4699602, “Stapled and Xenopus Glucagon-Like Peptide 1 (GLP-1)-Based Dual GLP-1/Gastrin Receptor Agonists with Improved Metabolic Benefits in Rodent Models of Obesity and Diabetes” (J Med Chem, 2020).
Where a SMILES comes first, the peptide text is derived from it.

Experiments:
[1] = target: T1, Glucagon-like peptide 1 receptor (Homo sapiens, UniProt P43220); assay: Agonist activity at human GLP-1R expressed in HEK293 cells assessed as stimulation of cAMP accumulation incubated for 20 mins in presence of 0% HSA; type: functional, cell-based
T1 sequence (P43220 whole entry): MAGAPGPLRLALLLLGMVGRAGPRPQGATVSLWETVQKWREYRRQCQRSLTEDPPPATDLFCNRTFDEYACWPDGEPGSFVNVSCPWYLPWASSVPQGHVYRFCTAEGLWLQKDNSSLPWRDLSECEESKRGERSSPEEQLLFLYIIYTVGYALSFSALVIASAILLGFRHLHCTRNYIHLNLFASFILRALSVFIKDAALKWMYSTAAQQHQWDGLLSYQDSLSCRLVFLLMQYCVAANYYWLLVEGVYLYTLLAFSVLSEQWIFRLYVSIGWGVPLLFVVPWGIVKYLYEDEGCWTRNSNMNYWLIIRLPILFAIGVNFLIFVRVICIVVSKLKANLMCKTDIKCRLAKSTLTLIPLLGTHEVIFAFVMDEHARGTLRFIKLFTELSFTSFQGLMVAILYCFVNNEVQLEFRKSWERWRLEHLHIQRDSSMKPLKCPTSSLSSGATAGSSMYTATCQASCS

[2] = target: T1, Glucagon-like peptide 1 receptor; assay: Agonist activity at human GLP-1R expressed in HEK293 cells assessed as stimulation of cAMP accumulation incubated for 20 mins in presence of 4.4% HSA; type: functional, cell-based
[3] = target: T1, Glucagon-like peptide 1 receptor; assay: Ratio of EC50 for agonist activity at human GLP-1R expressed in HEK293 cells in presence of 4.4% HSA to EC50 for agonist activity at human GLP-1R expressed in HEK293 cells in presence of 0% HSA; type: cell-based

SMILES	EC50 [1] [nM]	EC50 [2] [nM]	Ratio EC50 [3]
CCCCCCCCCCCCCCCC(=O)NCCCCCCNC(=O)C1CCCCNC(=O)CCN2C(=O)CC(SC[C@H](NC(=O)[C@H](Cc3ccc(O)cc3)NC(=O)[C@H](CCC(=O)O)NC(=O)[C@@H](NC(=O)[C@@H](NC(=O)[C@H](CC(=O)O)NC(=O)[C@H](CC(N)=O)NC(=O)[C@@H](NC(=O)[C@H](Cc3ccc(O)cc3)NC(=O)[C@@H](NC(=O)CNC(=O)[C@H](CCC(=O)O)NC(=O)C(C)(C)NC(=O)[C@@H](N)Cc3c[nH]cn3)[C@@H](C)O)[C@@H](C)O)C(C)C)[C@@H](C)O)C(=O)N[C@@H](CCC(=O)O)C(=O)N[C@@H](CCC(=O)O)C(=O)N[C@@H](CCC(=O)O)C(=O)N[C@@H](C)C(=O)N[C@@H](C)C(=O)N[C@@H](CCCCN)C(=O)N[C@H](C(=O)N[C@@H](Cc3ccccc3)C(=O)N[C@H](C(=O)N[C@@H](CCC(=O)O)C(=O)N[C@@H](Cc3c[nH]c4ccccc34)C(=O)N[C@@H](CC(C)C)C(=O)N[C@H](C(=O)N[C@@H](CCCCN)C(=O)NCC(=O)N[C@@H](CCCCN)C(N)=O)[C@@H](C)CC)[C@@H](C)CC)CSC3CC(=O)N(CCC(=O)N1)C3=O)C2=O (some centres not stated) (HELM PEPTIDE1{H.[Aib].E.G.T.Y.T.N.D.V.T.E.Y.C.E.E.E.A.A.K.C.F.I.E.W.L.I.K.G.K.[am]}|CHEM1{[CCCCCCCCCCCCCCCC(=O)NCCCCCCNC(=O)C(CCCCNC(=O)CCN1C(=O)CC([*:1])C1=O)NC(=O)CCN1C(=O)CC([*:2])C1=O]}$PEPTIDE1,CHEM1,14:R3-1:R1|PEPTIDE1,CHEM1,21:R3-1:R2$$$V2.0)	0.098	1.8	18.4
CC[C@H](C)[C@H](NC(=O)[C@H](CC(C)C)NC(=O)[C@H](Cc1c[nH]c2ccccc12)NC(=O)[C@H](CCC(=O)O)NC(=O)[C@@H](NC(=O)[C@H](Cc1ccccc1)NC(=O)[C@@H]1CSC2CC(=O)N(CCC(=O)NC(C(=O)NCCCCCCNC(=O)COCCOCCNC(=O)COCCOCCNC(=O)CCC(NC(=O)CCCCCCCCCCCCCCCCC(=O)O)C(=O)O)CCCCNC(=O)CCN3C(=O)CC(SC[C@H](NC(=O)[C@H](Cc4ccc(O)cc4)NC(=O)[C@H](CCC(=O)O)NC(=O)[C@@H](NC(=O)[C@@H](NC(=O)[C@H](CC(=O)O)NC(=O)[C@H](CC(N)=O)NC(=O)[C@@H](NC(=O)[C@H](Cc4ccc(O)cc4)NC(=O)[C@@H](NC(=O)CNC(=O)[C@H](CCC(=O)O)NC(=O)C(C)(C)NC(=O)[C@@H](N)Cc4c[nH]cn4)[C@@H](C)O)[C@@H](C)O)C(C)C)[C@@H](C)O)C(=O)N[C@@H](CCC(=O)O)C(=O)N[C@@H](CCC(=O)O)C(=O)N[C@@H](CCC(=O)O)C(=O)N[C@@H](C)C(=O)N[C@@H](C)C(=O)N[C@@H](CCCCN)C(=O)N1)C3=O)C2=O)[C@@H](C)CC)C(=O)N[C@@H](CCCCN)C(=O)NCC(=O)N[C@@H](CCCCN)C(N)=O (some centres not stated) (HELM PEPTIDE1{H.[Aib].E.G.T.Y.T.N.D.V.T.E.Y.C.E.E.E.A.A.K.C.F.I.E.W.L.I.K.G.K.[am]}|CHEM1{[O=C(O)CCCCCCCCCCCCCCCCC(=O)NC(CCC(=O)NCCOCCOCC(=O)NCCOCCOCC(=O)NCCCCCCNC(=O)C(CCCCNC(=O)CCN1C(=O)CC([*:1])C1=O)NC(=O)CCN1C(=O)CC([*:2])C1=O)C(=O)O]}$PEPTIDE1,CHEM1,14:R3-1:R1|PEPTIDE1,CHEM1,21:R3-1:R2$$$V2.0)	0.16	14.5	90.6
CC[C@H](C)[C@H](NC(=O)[C@H](CC(C)C)NC(=O)[C@H](Cc1c[nH]c2ccccc12)NC(=O)[C@H](CCC(=O)O)NC(=O)[C@@H](NC(=O)[C@H](Cc1ccccc1)NC(=O)[C@@H]1CSC2CC(=O)N(CCC(=O)NC(C(=O)NCCCCCCNC(=O)COCCOCCNC(=O)CCCCCCCCCCCCCCCCC(=O)O)CCCCNC(=O)CCN3C(=O)CC(SC[C@H](NC(=O)[C@H](Cc4ccc(O)cc4)NC(=O)[C@H](CCC(=O)O)NC(=O)[C@@H](NC(=O)[C@@H](NC(=O)[C@H](CC(=O)O)NC(=O)[C@H](CC(N)=O)NC(=O)[C@@H](NC(=O)[C@H](Cc4ccc(O)cc4)NC(=O)[C@@H](NC(=O)CNC(=O)[C@H](CCC(=O)O)NC(=O)C(C)(C)NC(=O)[C@@H](N)Cc4c[nH]cn4)[C@@H](C)O)[C@@H](C)O)C(C)C)[C@@H](C)O)C(=O)N[C@@H](CCC(=O)O)C(=O)N[C@@H](CCC(=O)O)C(=O)N[C@@H](CCC(=O)O)C(=O)N[C@@H](C)C(=O)N[C@@H](C)C(=O)N[C@@H](CCCCN)C(=O)N1)C3=O)C2=O)[C@@H](C)CC)C(=O)N[C@@H](CCCCN)C(=O)NCC(=O)N[C@@H](CCCCN)C(N)=O (some centres not stated) (HELM PEPTIDE1{H.[Aib].E.G.T.Y.T.N.D.V.T.E.Y.C.E.E.E.A.A.K.C.F.I.E.W.L.I.K.G.K.[am]}|CHEM1{[O=C(O)CCCCCCCCCCCCCCCCC(=O)NCCOCCOCC(=O)NCCCCCCNC(=O)C(CCCCNC(=O)CCN1C(=O)CC([*:1])C1=O)NC(=O)CCN1C(=O)CC([*:2])C1=O]}$PEPTIDE1,CHEM1,14:R3-1:R1|PEPTIDE1,CHEM1,21:R3-1:R2$$$V2.0)	0.13	1.4	10.8
CC[C@H](C)[C@@H]1NC(=O)[C@H](CC(C)C)NC(=O)[C@H](Cc2c[nH]c3ccccc23)NC(=O)[C@H](CCC(=O)O)NC(=O)[C@H]([C@@H](C)CC)NC(=O)[C@H](Cc2ccccc2)NC(=O)[C@@H](NC(=O)[C@H](CCCCN)NC(=O)[C@H](C)NC(=O)[C@H](C)NC(=O)[C@H](CCC(=O)O)NC(=O)[C@H](CCC(=O)O)NC(=O)[C@H](CCC(=O)O)NC(=O)[C@H](CC(C)C)NC(=O)[C@H](Cc2ccc(O)cc2)NC(=O)[C@H](CCC(=O)O)NC(=O)[C@@H](NC(=O)[C@@H](NC(=O)[C@H](CC(=O)O)NC(=O)[C@H](CC(N)=O)NC(=O)[C@@H](NC(=O)[C@H](Cc2ccc(O)cc2)NC(=O)[C@@H](NC(=O)CNC(=O)[C@H](CCC(=O)O)NC(=O)C(C)(C)NC(=O)[C@@H](N)Cc2c[nH]cn2)[C@@H](C)O)[C@@H](C)O)C(C)C)[C@@H](C)O)CSC2CC(=O)N(CCC(=O)NCCCCC(C(=O)NCCCCCCNC(=O)COCCOCCNC(=O)CCC(NC(=O)CCCCCCCCCCCCCCCCC(=O)O)C(=O)O)NC(=O)CCN3C(=O)CC(SC[C@@H](C(=O)NCC(=O)N[C@@H](CCCCN)C(=O)N4CCC[C@H]4C(=O)N[C@@H](CO)C(=O)N[C@@H](CO)C(=O)NCC(=O)N[C@@H](C)C(=O)N4CCC[C@H]4C(=O)N4CCC[C@H]4C(=O)N4CCC[C@H]4C(=O)N[C@@H](CO)C(N)=O)NC1=O)C3=O)C2=O (some centres not stated) (HELM PEPTIDE1{H.[Aib].E.G.T.Y.T.N.D.V.T.E.Y.L.E.E.E.A.A.K.C.F.I.E.W.L.I.C.G.K.P.S.S.G.A.P.P.P.S.[am]}|CHEM1{[O=C(O)CCCCCCCCCCCCCCCCC(=O)NC(CCC(=O)NCCOCCOCC(=O)NCCCCCCNC(=O)C(CCCCNC(=O)CCN1C(=O)CC([*:1])C1=O)NC(=O)CCN1C(=O)CC([*:2])C1=O)C(=O)O]}$PEPTIDE1,CHEM1,21:R3-1:R1|PEPTIDE1,CHEM1,28:R3-1:R2$$$V2.0)	0.14	8.6	61.4
